In ChEMBL document CHEMBL1159295, “Sulfated Polyprenylhydroquinones from the Sponge Ircinia spinosula” (J Nat Prod, 1995):
Activity calls are given as the source filed them. No cut-off for these calls is given here.

tested on: Gambusia affinis; assay: Toxicity in Gambusia affinis; format: organism-based; details: in vivo

Structure (SMILES)	LC50 [ppm]
CC(C)=CCC/C(C)=C/CC/C(C)=C/CC/C(=C/CC/C(C)=C/CC/C(C)=C/CC/C(C)=C/CCC1(C)C=Cc2cc(O)ccc2O1)CO (stereo not drawn)	> 100
CC(C)=CCC/C(C)=C/CC/C(C)=C/CC/C(C)=C/CC/C(C)=C/CC/C(C)=C/CC/C(C)=C/CC/C(C)=C/Cc1cc(OS(=O)(=O)[O-])ccc1O.[Na+]	16.9
CC(C)=CCC/C(C)=C/CC/C(C)=C/CC/C(=C/CC/C(C)=C/CC/C(C)=C/CC/C(C)=C/CC/C(C)=C/Cc1cc(OS(=O)(=O)[O-])ccc1O)CO.[Na+]	19.6
CC(C)=CCC/C(C)=C/CC/C(C)=C/CC/C(C)=C/CC/C(C)=C/CC/C(C)=C/CC/C(C)=C/CCC1(C)C=Cc2cc(O)ccc2O1 (stereo not drawn)	> 100
CC(C)=CCC/C(C)=C/CC/C(C)=C/CC/C(C)=C/CC/C(C)=C/CC/C(C)=C/CC/C(C)=C/Cc1cc(O)ccc1O	> 100
CC(C)=CCC/C(C)=C/CC/C(C)=C/CC/C(=C/CC/C(C)=C/CC/C(C)=C/CC/C(C)=C/CC/C(C)=C/Cc1cc(O)ccc1O)CO	> 100
CC(C)=CCC/C(C)=C/CC/C(C)=C/CC/C(C)=C/CC/C(C)=C/CC/C(C)=C/CC/C(C)=C/CC/C(C)=C/Cc1cc(O)ccc1O	> 100
CC(C)=CCC/C(C)=C/CC/C(C)=C/CC/C(C)=C/CC/C(C)=C/CC/C(C)=C/CC/C(C)=C/Cc1cc(OS(=O)(=O)[O-])ccc1O.[Na+]	15.6
CC(C)=CCC/C(C)=C/CC/C(C)=C/CC/C(C)=C/CC/C(C)=C/CC/C(C)=C/CCC1(C)C=Cc2cc(O)ccc2O1 (stereo not drawn)	> 100

tested on: Artemia salina; assay: Toxicity in Artemia salina; format: organism-based; details: in vivo

Structure (SMILES)	LC50 [ppm]
CC(C)=CCC/C(C)=C/CC/C(C)=C/CC/C(=C/CC/C(C)=C/CC/C(C)=C/CC/C(C)=C/CCC1(C)C=Cc2cc(O)ccc2O1)CO (stereo not drawn)	32.3
CC(C)=CCC/C(C)=C/CC/C(C)=C/CC/C(C)=C/CC/C(C)=C/CC/C(C)=C/CC/C(C)=C/CC/C(C)=C/Cc1cc(OS(=O)(=O)[O-])ccc1O.[Na+]	0.04
CC(C)=CCC/C(C)=C/CC/C(C)=C/CC/C(=C/CC/C(C)=C/CC/C(C)=C/CC/C(C)=C/CC/C(C)=C/Cc1cc(OS(=O)(=O)[O-])ccc1O)CO.[Na+]	0.05
CC(C)=CCC/C(C)=C/CC/C(C)=C/CC/C(C)=C/CC/C(C)=C/CC/C(C)=C/CC/C(C)=C/CCC1(C)C=Cc2cc(O)ccc2O1 (stereo not drawn)	1.45
CC(C)=CCC/C(C)=C/CC/C(C)=C/CC/C(C)=C/CC/C(C)=C/CC/C(C)=C/CC/C(C)=C/Cc1cc(O)ccc1O	0.91
CC(C)=CCC/C(C)=C/CC/C(C)=C/CC/C(=C/CC/C(C)=C/CC/C(C)=C/CC/C(C)=C/CC/C(C)=C/Cc1cc(O)ccc1O)CO	0.35
CC(C)=CCC/C(C)=C/CC/C(C)=C/CC/C(C)=C/CC/C(C)=C/CC/C(C)=C/CC/C(C)=C/CC/C(C)=C/Cc1cc(O)ccc1O	0.98
CC(C)=CCC/C(C)=C/CC/C(C)=C/CC/C(C)=C/CC/C(C)=C/CC/C(C)=C/CC/C(C)=C/Cc1cc(OS(=O)(=O)[O-])ccc1O.[Na+]	0.02
CC(C)=CCC/C(C)=C/CC/C(C)=C/CC/C(C)=C/CC/C(C)=C/CC/C(C)=C/CCC1(C)C=Cc2cc(O)ccc2O1 (stereo not drawn)	1.15

tested on: Bacillus subtilis; assay: Antibacterial activity against Bacillus subtilis DSM 347 at 100 ug/disk by diffusion test; format: functional, organism-based; details: not given

Structure (SMILES)	Activity
CC(C)=CCC/C(C)=C/CC/C(C)=C/CC/C(=C/CC/C(C)=C/CC/C(C)=C/CC/C(C)=C/CCC1(C)C=Cc2cc(O)ccc2O1)CO (stereo not drawn)	inactive
CC(C)=CCC/C(C)=C/CC/C(C)=C/CC/C(C)=C/CC/C(C)=C/CC/C(C)=C/CC/C(C)=C/CC/C(C)=C/Cc1cc(OS(=O)(=O)[O-])ccc1O.[Na+]	inactive
CC(C)=CCC/C(C)=C/CC/C(C)=C/CC/C(=C/CC/C(C)=C/CC/C(C)=C/CC/C(C)=C/CC/C(C)=C/Cc1cc(OS(=O)(=O)[O-])ccc1O)CO.[Na+]	inactive
CC(C)=CCC/C(C)=C/CC/C(C)=C/CC/C(C)=C/CC/C(C)=C/CC/C(C)=C/CC/C(C)=C/CCC1(C)C=Cc2cc(O)ccc2O1 (stereo not drawn)	inactive
CC(C)=CCC/C(C)=C/CC/C(C)=C/CC/C(=C/CC/C(C)=C/CC/C(C)=C/CC/C(C)=C/CC/C(C)=C/Cc1cc(O)ccc1O)CO	inactive
CC(C)=CCC/C(C)=C/CC/C(C)=C/CC/C(C)=C/CC/C(C)=C/CC/C(C)=C/CC/C(C)=C/Cc1cc(OS(=O)(=O)[O-])ccc1O.[Na+]	inactive
CC(C)=CCC/C(C)=C/CC/C(C)=C/CC/C(C)=C/CC/C(C)=C/CC/C(C)=C/CCC1(C)C=Cc2cc(O)ccc2O1 (stereo not drawn)	inactive

tested on: Micrococcus luteus; assay: Antibacterial activity against Micrococcus luteus DSM 348 at 100 ug/disk by diffusion test; format: functional, organism-based; details: not given

Structure (SMILES)	Activity
CC(C)=CCC/C(C)=C/CC/C(C)=C/CC/C(=C/CC/C(C)=C/CC/C(C)=C/CC/C(C)=C/CCC1(C)C=Cc2cc(O)ccc2O1)CO (stereo not drawn)	inactive
CC(C)=CCC/C(C)=C/CC/C(C)=C/CC/C(C)=C/CC/C(C)=C/CC/C(C)=C/CC/C(C)=C/CC/C(C)=C/Cc1cc(OS(=O)(=O)[O-])ccc1O.[Na+]	inactive
CC(C)=CCC/C(C)=C/CC/C(C)=C/CC/C(=C/CC/C(C)=C/CC/C(C)=C/CC/C(C)=C/CC/C(C)=C/Cc1cc(OS(=O)(=O)[O-])ccc1O)CO.[Na+]	inactive
CC(C)=CCC/C(C)=C/CC/C(C)=C/CC/C(C)=C/CC/C(C)=C/CC/C(C)=C/CC/C(C)=C/CCC1(C)C=Cc2cc(O)ccc2O1 (stereo not drawn)	inactive
CC(C)=CCC/C(C)=C/CC/C(C)=C/CC/C(=C/CC/C(C)=C/CC/C(C)=C/CC/C(C)=C/CC/C(C)=C/Cc1cc(O)ccc1O)CO	inactive
CC(C)=CCC/C(C)=C/CC/C(C)=C/CC/C(C)=C/CC/C(C)=C/CC/C(C)=C/CC/C(C)=C/Cc1cc(OS(=O)(=O)[O-])ccc1O.[Na+]	inactive
CC(C)=CCC/C(C)=C/CC/C(C)=C/CC/C(C)=C/CC/C(C)=C/CC/C(C)=C/CCC1(C)C=Cc2cc(O)ccc2O1 (stereo not drawn)	inactive

tested on: Pseudomonas aeruginosa; assay: Antibacterial activity against Pseudomonas aeruginosa DSM 1117 at 100 ug/disk by diffusion test; format: functional, organism-based; details: not given

Structure (SMILES)	Activity
CC(C)=CCC/C(C)=C/CC/C(C)=C/CC/C(=C/CC/C(C)=C/CC/C(C)=C/CC/C(C)=C/CCC1(C)C=Cc2cc(O)ccc2O1)CO (stereo not drawn)	inactive
CC(C)=CCC/C(C)=C/CC/C(C)=C/CC/C(C)=C/CC/C(C)=C/CC/C(C)=C/CC/C(C)=C/CC/C(C)=C/Cc1cc(OS(=O)(=O)[O-])ccc1O.[Na+]	inactive
CC(C)=CCC/C(C)=C/CC/C(C)=C/CC/C(=C/CC/C(C)=C/CC/C(C)=C/CC/C(C)=C/CC/C(C)=C/Cc1cc(OS(=O)(=O)[O-])ccc1O)CO.[Na+]	inactive
CC(C)=CCC/C(C)=C/CC/C(C)=C/CC/C(C)=C/CC/C(C)=C/CC/C(C)=C/CC/C(C)=C/CCC1(C)C=Cc2cc(O)ccc2O1 (stereo not drawn)	inactive
CC(C)=CCC/C(C)=C/CC/C(C)=C/CC/C(=C/CC/C(C)=C/CC/C(C)=C/CC/C(C)=C/CC/C(C)=C/Cc1cc(O)ccc1O)CO	inactive
CC(C)=CCC/C(C)=C/CC/C(C)=C/CC/C(C)=C/CC/C(C)=C/CC/C(C)=C/CC/C(C)=C/Cc1cc(OS(=O)(=O)[O-])ccc1O.[Na+]	inactive
CC(C)=CCC/C(C)=C/CC/C(C)=C/CC/C(C)=C/CC/C(C)=C/CC/C(C)=C/CCC1(C)C=Cc2cc(O)ccc2O1 (stereo not drawn)	inactive

tested on: Escherichia coli; assay: Antibacterial activity against Escherichia coli DSM 1103 at 100 ug/disk by diffusion test; format: functional, organism-based; details: not given

Structure (SMILES)	Activity
CC(C)=CCC/C(C)=C/CC/C(C)=C/CC/C(=C/CC/C(C)=C/CC/C(C)=C/CC/C(C)=C/CCC1(C)C=Cc2cc(O)ccc2O1)CO (stereo not drawn)	inactive
CC(C)=CCC/C(C)=C/CC/C(C)=C/CC/C(C)=C/CC/C(C)=C/CC/C(C)=C/CC/C(C)=C/CC/C(C)=C/Cc1cc(OS(=O)(=O)[O-])ccc1O.[Na+]	inactive
CC(C)=CCC/C(C)=C/CC/C(C)=C/CC/C(=C/CC/C(C)=C/CC/C(C)=C/CC/C(C)=C/CC/C(C)=C/Cc1cc(OS(=O)(=O)[O-])ccc1O)CO.[Na+]	inactive
CC(C)=CCC/C(C)=C/CC/C(C)=C/CC/C(C)=C/CC/C(C)=C/CC/C(C)=C/CC/C(C)=C/CCC1(C)C=Cc2cc(O)ccc2O1 (stereo not drawn)	inactive
CC(C)=CCC/C(C)=C/CC/C(C)=C/CC/C(=C/CC/C(C)=C/CC/C(C)=C/CC/C(C)=C/CC/C(C)=C/Cc1cc(O)ccc1O)CO	inactive
CC(C)=CCC/C(C)=C/CC/C(C)=C/CC/C(C)=C/CC/C(C)=C/CC/C(C)=C/CC/C(C)=C/Cc1cc(OS(=O)(=O)[O-])ccc1O.[Na+]	inactive
CC(C)=CCC/C(C)=C/CC/C(C)=C/CC/C(C)=C/CC/C(C)=C/CC/C(C)=C/CCC1(C)C=Cc2cc(O)ccc2O1 (stereo not drawn)	inactive

tested on: Candida albicans; assay: Antifungal activity against Candida albicans DSM 1665 at 100 ug/disk by diffusion test; format: functional, organism-based; details: not given

Structure (SMILES)	Activity
CC(C)=CCC/C(C)=C/CC/C(C)=C/CC/C(=C/CC/C(C)=C/CC/C(C)=C/CC/C(C)=C/CCC1(C)C=Cc2cc(O)ccc2O1)CO (stereo not drawn)	inactive
CC(C)=CCC/C(C)=C/CC/C(C)=C/CC/C(C)=C/CC/C(C)=C/CC/C(C)=C/CC/C(C)=C/CC/C(C)=C/Cc1cc(OS(=O)(=O)[O-])ccc1O.[Na+]	inactive
CC(C)=CCC/C(C)=C/CC/C(C)=C/CC/C(=C/CC/C(C)=C/CC/C(C)=C/CC/C(C)=C/CC/C(C)=C/Cc1cc(OS(=O)(=O)[O-])ccc1O)CO.[Na+]	inactive
CC(C)=CCC/C(C)=C/CC/C(C)=C/CC/C(C)=C/CC/C(C)=C/CC/C(C)=C/CC/C(C)=C/CCC1(C)C=Cc2cc(O)ccc2O1 (stereo not drawn)	inactive
CC(C)=CCC/C(C)=C/CC/C(C)=C/CC/C(=C/CC/C(C)=C/CC/C(C)=C/CC/C(C)=C/CC/C(C)=C/Cc1cc(O)ccc1O)CO	inactive
CC(C)=CCC/C(C)=C/CC/C(C)=C/CC/C(C)=C/CC/C(C)=C/CC/C(C)=C/CC/C(C)=C/Cc1cc(OS(=O)(=O)[O-])ccc1O.[Na+]	inactive
CC(C)=CCC/C(C)=C/CC/C(C)=C/CC/C(C)=C/CC/C(C)=C/CC/C(C)=C/CCC1(C)C=Cc2cc(O)ccc2O1 (stereo not drawn)	inactive
